From US10202421B2, “Tumor-targeting compounds” (SKU Asset Management GmbH, priority 2009, dated 2019)
Blank lines part the entries; values can stand above or below the compound they belong to. No end group written: not given here. *: point of attachment. For = O=C*

Assays:
[1] = Size exclusion chromatography and dynamic light scattering analysis; type: physicochemical; conditions: size exclusion chromatography, dynamic light scattering
Source text: (§1) The peptide SEQ ID NO 1, […] showing specific binding activity to the tumor marker Erb-B1/EGFR was chosen as binder and the macrophage-activating peptide formyl-MLP as effector to synthesize structure 1. The structure was synthesized chemically by standard methods known in the art and purified by ion exchange chromatography. Chemical identity was verified by mass spectrometry.

granulocytes = experiment: Chemotaxis assay (trans-well assay for macrophage mobilization); type: cell-based
Source text: Concentration-dependent granulocyte activation of N-formyl peptide conjugates has been compared with activation of the peptide only. Each series of experiments has been repeated 3 times with 200,000 granulocytes each. […] Therefore, variations in the formyl peptide amino acid composition, e.g. different amino acid residues at position 3 (phenylalanine, proline) as in structure 1 and structure 2, provide a further means to tune the immune response.

human EGFR/Erb-B1 = target: T1, human EGFR/Erb-B1 (Homo sapiens, UniProt P00533); experiment: Fluorescence spectroscopy binding/displacement test with NBD-labelled 12mer tracer and EGFR
T1 construct: purchased

Solubility at pH 7 = type: physicochemical
Source text: as §1

displacement of fluorescent tracer peptide from EGFR complex (human EGFR/Erb-B1; 1 µM EGFR/NBD-12mer complex titrated with increasing concentrations (FIG. 5d)): displacement of the fluorescent tracer
KD value for the interaction with EGFR (human EGFR/Erb-B1; displacement of fluorescently labelled 12mer from EGFR complex, estimated): low nM range
Compound: CC[C@H](C)[C@H](NC(=O)[C@@H](NC(=O)[C@H](CC(N)=O)NC(=O)[C@H](CCC(N)=O)NC(=O)[C@@H]1CCCN1C(=O)[C@@H](NC(=O)[C@H](Cc1ccc(O)cc1)NC(=O)CNC(=O)[C@H](Cc1ccc(O)cc1)NC(=O)[C@H](Cc1c[nH]c2ccccc12)NC(=O)[C@H](Cc1c[nH]cn1)NC(=O)[C@@H](N)Cc1ccc(O)cc1)[C@@H](C)O)C(C)C)C(=O)NCCOCCOCCOCCOCCOCCOCCOCCOCCOCCOCCOCCOCCOCCOCCOCCOCCOCCOCCOCCOCCOCCOCCOCCOCCOCCOCCOCCOCCC(=O)NCCCC[C@H](NC(=O)[C@H](CCCCNC(=O)CCOCCOCCOCCOCCOCCOCCOCCOCCOCCOCCOCCOCCOCCOCCOCCOCCOCCOCCOCCOCCOCCOCCOCCOCCOCCOCCOCCOCCNC(=O)[C@@H](NC(=O)[C@@H](NC(=O)[C@H](CC(N)=O)NC(=O)[C@H](CCC(N)=O)NC(=O)[C@@H]1CCCN1C(=O)[C@@H](NC(=O)[C@H](Cc1ccc(O)cc1)NC(=O)CNC(=O)[C@H](Cc1ccc(O)cc1)NC(=O)[C@H](Cc1c[nH]c2ccccc12)NC(=O)[C@H](Cc1c[nH]cn1)NC(=O)[C@@H](N)Cc1ccc(O)cc1)[C@@H](C)O)C(C)C)[C@@H](C)CC)NC(=O)[C@@H]1CCCN1C(=O)[C@H](CC(C)C)NC(=O)[C@H](CCSC)NC=O)C(=O)O [structure 1]
oligomers or large aggregates [1]: no oligomers or large aggregates
macrophage activation profile (granulocytes; trans-well assay): demonstrated
solubility (Solubility at pH 7): ≤ 10000 µg/mL

Compound: N-formyl-Met-Leu-Phe (For-Met-Leu-Phe) [fMLF]
stimulation of granulocyte chemotaxis (granulocytes; separate experiment): can be stimulated
chemotactic response compared to fMLP (granulocytes; separate experiment, granulocytes): slightly higher

Compound: N-formyl-Met-Leu-Pro (For-Met-Leu-Pro) [fMLP]
stimulation of granulocyte chemotaxis (granulocytes; separate experiment): can be stimulated

displacement of fluorescent tracer peptide from EGFR complex (fluorescence intensity) (human EGFR/Erb-B1; EGFR-tracer complex 50 nM, PBS pH 7.5, 10 fold excess of unlabelled peptide (FIG. 5c)): decrease in fluorescence intensity
Compound: YHWYGYTPQNVI [unlabelled peptide, reference compound]
